Reference: paper PMC5641092 (Oncotarget, 2017)
Like-named read-outs stand apart in the source and are kept apart here. Residues, ends and D or L forms follow the SMILES beside them.

Legend:
[1] = target: T1, pepsin from porcine gastric mucosa (Sus scrofa, UniProt P00791); assay: Peptide stability in presence of pepsin at pH 2 (SDS-PAGE); type: in vitro ADME; settings: pepsin in buffer pH 2, peptide:pepsin 10:1 weight ratio, 37°C, 1, 2 and 7 days
T1 construct: pepsin from porcine gastric mucosa (Sigma-Aldrich, Deisenhofen, Germany); purchased Sigma-Aldrich, Deisenhofen, Germany; host or cells: porcine gastric mucosa
T1 sequence (P00791 60-385): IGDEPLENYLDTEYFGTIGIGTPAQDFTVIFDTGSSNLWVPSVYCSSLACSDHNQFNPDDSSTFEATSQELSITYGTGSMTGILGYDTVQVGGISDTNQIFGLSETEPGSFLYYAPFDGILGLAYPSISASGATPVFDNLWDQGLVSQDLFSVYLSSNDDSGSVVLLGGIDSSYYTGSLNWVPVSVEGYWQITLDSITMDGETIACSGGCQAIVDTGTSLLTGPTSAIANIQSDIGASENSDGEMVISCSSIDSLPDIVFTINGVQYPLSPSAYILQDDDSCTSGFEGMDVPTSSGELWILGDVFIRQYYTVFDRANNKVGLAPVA
Protocol: (§1) Peptide stability was tested in presence of bovine serum albumin (BSA, Sigma-Aldrich, Deisenhofen, Germany), fetal bovine serum (FBS, Gibco®), buffer pH 2 (30 mM citric acid/HCl, 60 mM NaCl), pH 10 (10 mM Tris/NaOH), and pepsin from porcine gastric mucosa (Sigma-Aldrich, Deisenhofen, Germany) in buffer pH 2. […] After the given time points aliquots were taken and diluted with electrophoresis loading buffer (2.5% SDS) heated for 5 minutes at 95°C and analyzed by SDS-gel electrophoreses (BioRad, Mini-PROTEAN Tetra System). As standard the Ultra-low Range Molecular Weight Marker M3546 (Sigma-Aldrich, Deisenhofen, Germany) was used. For analysis of binding to BSA after 7 days respective samples were taken and loaded on Amicon Ultra-0.5 ml Centrifugal Filters (Ultracel-10K) (Merck Millipore, Tullagreen, IRL). After centrifugation (14.000g, 30 minutes, 4°C) the filtrate was analyzed for amount of non-BSA-bound peptide by measurement of UV-absorbance of tryptophan at 280 nm. The filtrate (free) peptide amount was corrected with the peptide loss during the filtration process by a control experiment with defined peptide amount.

[2] = Peptide stability in presence of fetal bovine serum (SDS-PAGE); type: in vitro ADME; settings: FBS 1:1 weight ratio, 37°C
Protocol: as §1

[3] = target: T2, bovine serum albumin (BSA) (Bos taurus, UniProt P02769); assay: Peptide stability in presence of BSA (SDS-PAGE); type: in vitro ADME; settings: BSA 1:1 weight ratio, 37°C, 1, 6 and 7 days
T2 construct: purchased Sigma-Aldrich, Deisenhofen, Germany
T2 sequence (P02769 25-607): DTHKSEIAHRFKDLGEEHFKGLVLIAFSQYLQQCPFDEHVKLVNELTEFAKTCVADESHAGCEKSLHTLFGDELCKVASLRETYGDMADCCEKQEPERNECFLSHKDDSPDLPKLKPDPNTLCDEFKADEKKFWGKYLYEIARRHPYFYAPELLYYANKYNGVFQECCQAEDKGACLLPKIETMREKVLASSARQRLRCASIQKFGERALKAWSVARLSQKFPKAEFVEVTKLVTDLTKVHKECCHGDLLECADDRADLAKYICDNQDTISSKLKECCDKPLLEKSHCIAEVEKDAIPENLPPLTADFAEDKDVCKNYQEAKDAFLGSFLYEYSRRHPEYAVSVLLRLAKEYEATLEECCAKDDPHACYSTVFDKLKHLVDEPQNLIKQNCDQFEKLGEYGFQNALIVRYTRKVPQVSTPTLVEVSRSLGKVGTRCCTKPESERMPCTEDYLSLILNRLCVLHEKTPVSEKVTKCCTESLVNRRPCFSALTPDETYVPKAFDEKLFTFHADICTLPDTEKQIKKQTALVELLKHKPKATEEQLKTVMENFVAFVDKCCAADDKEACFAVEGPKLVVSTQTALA
Protocol: (§2) Peptide stability was tested in presence of bovine serum albumin (BSA, Sigma-Aldrich, Deisenhofen, Germany), fetal bovine serum (FBS, Gibco®), buffer pH 2 (30 mM citric acid/HCl, 60 mM NaCl), pH 10 (10 mM Tris/NaOH), and pepsin from porcine gastric mucosa (Sigma-Aldrich, Deisenhofen, Germany) in buffer pH 2. Therefore peptide samples were incubated in presence of 1:1 weight ratios (10:1 in presence of pepsin) with the mentioned components or in presence of buffer (pH 2 or 10) for 1 day, 6 days and 7 days at 37°C. After the given time points aliquots were taken and diluted with electrophoresis loading buffer (2.5% SDS) heated for 5 minutes at 95°C and analyzed by SDS-gel electrophoreses (BioRad, Mini-PROTEAN Tetra System). As standard the Ultra-low Range Molecular Weight Marker M3546 (Sigma-Aldrich, Deisenhofen, Germany) was used. For analysis of binding to BSA after 7 days respective samples were taken and loaded on Amicon Ultra-0.5 ml Centrifugal Filters (Ultracel-10K) (Merck Millipore, Tullagreen, IRL). After centrifugation (14.000g, 30 minutes, 4°C) the filtrate was analyzed for amount of non-BSA-bound peptide by measurement of UV-absorbance of tryptophan at 280 nm. The filtrate (free) peptide amount was corrected with the peptide loss during the filtration process by a control experiment with defined peptide amount.

[4] = system: normal human dermal fibroblasts NHDF; assay: MTS cell viability assay, NHDF; type: cell-based; settings: 24 h, at least three experiments
From the text: The human malignant melanoma cell line A375 was purchased from ATCC (American Type Culture Collection, Manassas, Virginia, US) and cultured in Dulbecco's Modified Eagle Medium with GlutaMAX™ (DMEM, Gibco®, Thermo Fisher Scientific, USA) with addition of 10% FBS (Gibco®). Melanoma cell lines from primary (SBcl-2) and metastatic (WM164) lesions (kindly provided by Dr. Meenhard Herlyn, the Wistar Institute, Philadelphia, PA) and newly established primary cells MUG-Mel1 (manuscript Rinner et al., in preparation) were maintained in RPMI 1640 medium with GlutaMAX™ (Gibco®, Thermo Fisher Scientific, USA) supplemented with 2% FBS (fetal bovine serum; Gibco®). Normal human dermal fibroblasts NHDF, used as healthy control cells, purchased from PromoCell GmbH were cultured in fibroblast growth medium 2 (PromoCell GmbH). All cells were kept in a 5% CO2 atmosphere at 37°C. […]
MTS viability assay-spectroscopy—Cell proliferation was measured by using CellTiter 96® Aqueous One Solution Cell Proliferation assay (Promega). […] The quantity of the formazan product as measured by the amount of 490 nm absorbance is directly proportional to the number of living cells in culture. Data are calculated as a percentage of the control (untreated) samples and represent the average of three wells in one experiment which was repeated three times per cell line.

[5] = Complete blood count of xenografted mice; type: in vivo, FOXN1 mice; settings: 7 mice
Protocol: 20 FOXN1 mice (Charles River Laboratories, Sulzfeld, Germany) were xenotransplanted with melanoma cells A375 subcutaneously in the right flank. The tumor was grown to a maximum length and width of 3 mm before peptide treatment was started (day 0). […] Treatment occurred at days 0, 1, 6, 7, 8, 11 and 12 in 7 single doses by injection into the tumor. The total dose per mouse was 1.67 mg. The single doses applied at day 0 and 1 contained 0.33 mg peptide and the residual doses contained 0.20 mg. The tumor sizes were measured with manual calipers during the treatment time span. At day 15 the mice were sacrificed and the tumors were isolated and examined together with the organs of the mice after paraffin embedment and staining of four-micron sections with hematoxylin and eosin. All animal work was done in accordance with the protocol approved by the institutional animal care and use committee at the Austrian Federal Ministry for Science and Research (BMWF) (vote 66.010/0160-II/3b/2012).

[6] = Side effects after subcutaneous injection of peptide into the flank; type: in vivo, mice
Protocol: To test further potential side effects of the peptide in vivo, 3 mice were injected subcutaneously into the flank with 9 doses of peptide to a total amount of 0.68 mg per mouse over 3 weeks. Then the skin at injection site, liver, kidney, spleen, and weight were checked for abnormal changes (Supplementary Figure 1, liver and kidney).

[7] = target: T2, bovine serum albumin (BSA); assay: Binding to BSA (centrifugal filtration, UV 280 nm); settings: after 7 days of incubation at 37°C, Amicon Ultracel-10K filtration, corrected for filtration loss
Protocol: as §2

[8] = system: human melanoma A375 xenografts; assay: Mouse xenografts of human melanoma A375, intratumoral peptide treatment; type: in vivo, FOXN1 mice; settings: day 1 and day 3, after first and second dose of 0.33 mg
Protocol: 20 FOXN1 mice (Charles River Laboratories, Sulzfeld, Germany) were xenotransplanted with melanoma cells A375 subcutaneously in the right flank. The tumor was grown to a maximum length and width of 3 mm before peptide treatment was started (day 0). 9 mice were treated with peptide dissolved in buffer PBS (P), 5 mice were treated with pure buffer (C+), 5 mice were untreated (C-). Treatment occurred at days 0, 1, 6, 7, 8, 11 and 12 in 7 single doses by injection into the tumor. The total dose per mouse was 1.67 mg. The single doses applied at day 0 and 1 contained 0.33 mg peptide and the residual doses contained 0.20 mg. The tumor sizes were measured with manual calipers during the treatment time span. […]
The tumor sections of peptide treated and untreated mice were evaluated for the following: tumor cell types (spindle, epithelioid, or mixed), tumor size, present/ absent necrosis or fibrosis. […] We performed Ki67 staining (Ki-67 rabbit primary antibody, 30-9; ready to use with Ventana iView DAB detection kit; Pretreatment: CC1mild; All Ventana Medical Systems, Inc, Tucson, Arizona).
All values were presented as the mean ± SEM. In vivo data were analyzed by using the unpaired student's t test, p-values less than 0.001 were considered statistically significant.

malignant melanoma = settings: cited from earlier work; for response rates: malignant melanoma patients, ref [26], [27]
From the text: Though, the specific target PS has been described to be exposed by numerous cancer types, we decided to focus on treatment of a cancer type with poor prognosis and limited therapy options, like malignant melanoma. […] In 1960s the risk to develop malignant melanoma was 1:600, whereas today it is 1:75 to 1:100 [23]. Further it exerts high tendency to metastasize and is mainly chemo-resistant. Thus the long-standing applied treatment with the methylating agent dacarbazine or its oral analogue temozolomide only yie ...

[9] = 3 mice, 9 s.c. doses, total 0.68 mg per mouse over 3 weeks
[10] = vemurafenib compared to dacarbazine, ref [30]

## CC[C@H](C)[C@H](NC(=O)[C@H](CCCNC(=N)N)NC(=O)[C@@H](NC(=O)[C@H](CCCNC(=N)N)NC(=O)[C@H](CCCNC(=N)N)NC(=O)[C@@H]1CCCN1C(=O)[C@H](CCCNC(=N)N)NC(=O)[C@H](CCCNC(=N)N)NC(=O)[C@@H](NC(=O)[C@H](CCCNC(=N)N)NC(=O)[C@@H](NC(=O)[C@H](CCCNC(=N)N)NC(=O)[C@H](Cc1c[nH]c2ccccc12)NC(=O)[C@@H]1CCCN1)[C@@H](C)CC)[C@@H](C)CC)[C@@H](C)CC)C(=O)N[C@@H](CCCNC(=N)N)C(=O)N[C@@H](Cc1c[nH]c2ccccc12)C(=O)N1CCC[C@H]1C(N)=O [R-DIM-P-LF11-334] (H-PWRIRIRRPRRIRIRWP-NH2)
[1]
  cleavage in presence of pepsin: no visible cleavage
[2]
  incubation time in FBS before amount of peptide is reduced: more than 1 day
  peptide remaining in FBS after 6 days: no peptide was detectable
  period of stability / complete activity in presence of FBS (blood components): 24 h
[2]; data not shown
  fraction of peptide left in FBS after 2 days: about 1/3
[3]
  degradation of peptide by BSA: no degrading effect
[4]
  LC50 MTS: > 90 µM
[5]; +P
  Bas: 0.68%
  EVB-CV: 19.44%
  EVB-SD: 35.95 fL
  MERY: 0.34%
  MTHR: 8.13%
  Medn: 4.14 fL
  Mod: 3.05 fL
  Other (leukocytes): 2.30%
  TKT: 0.43%
  μERY: 16.00%
  μTHR: 16.54%
[5]; +P, normal range 1-5
  Mon: 4.46%
[5]; +P, normal range 3-8
  MPV: 5.91 fL
[5]; +P, normal range 6-10
  TVB: 10.10
[5]; +P, normal range 6-11
  Erythrocytes ERY: 8.53 10^6/μl
[5]; +P, normal range 13-22
  MCH: 16.5 pg
[5]; +P, normal range 14-18
  Hb: 14.06 g/dL
[5]; +P, normal range 24-40
  MCHC: 32.85 g/dL
[5]; +P, normal range 35-45
  Hct: 42.81%
[5]; +P, normal range 35-50
  MCV: 50.18 fL
[5]; +P, normal range 70-81, marked ↑
  Lym: 82.28%
[5]; +P, normal range 100-600, marked ↑
  Thrombocytes THR: 705.00 10^3/μl
[5]; +P, normal range <10
  Eos: 1.33%
[5]; peptide treated xenograft mice (+P), normal range 4-10
  Leukocytes LEU: 6.13 10^3/μl
[6]; [9]
  inflammation after subcutaneous injection: No inflammation occurred
  organs (skin at injection site, liver, kidney, spleen): unsuspicious
  weight gain: normal
[6]; s.c. treatment, 9 doses, Supplementary Figure 1
  effect in liver and kidney (H&E sections): No effect
[7]
  binding of the peptide to BSA: approximately 75%
[8]
  local reaction at tumor after intratumoral injection: in some cases a wound developed

## CN(C)/N=N/c1[nH]cnc1C(N)=O [dacarbazine]
Malignant melanoma
  response rates: about 15%
Malignant melanoma; ref [29]
  percentage of 5 years survival, solely dacarbazine: 8%
Malignant melanoma; [10]
  median survival: 9.7 months

## Cn1nnc2c(C(N)=O)ncn2c1=O [temozolomide]
Malignant melanoma
  response rates: about 15%

## CCCS(=O)(=O)Nc1ccc(F)c(C(=O)c2c[nH]c3ncc(-c4ccc(Cl)cc4)cc23)c1F [vemurafenib]
Malignant melanoma; [10]
  median survival: 13.6 months

## ipilimumab: immunotherapy approved by the FDA in 2011, blocks the T-cell inhibition of CTLA-4
Malignant melanoma; melanoma patients, ref [28]
  median survival: 12.7 months
Malignant melanoma; patients treated with ipilimumab in combination with dacarbazine, ref [29]
  percentage of 5 years survival, in combination with dacarbazine: 18%
